# Measurements from publication PMC11428593 (Antibiotics, 2024).
# What was measured:
# Format in all cases: cell-based, Staphylococcus aureus
# MRSA USA300LAC = experiment: MIC by broth microdilution (CLSI); details: Staphylococcus aureus, MRSA, 16 h
# Description: The MIC values of the alkyl pyridinol derivatives against the S. aureus strain ATCC 25923, MRSA strains ATCC 33591, ATCC BAA-44, and USA300LAC, as well as the P. aeruginosa strain ATCC 27853, were determined by following the CLSI guidelines for the broth microdilution antibiotic sensitivity testing protocol. In brief, the overnight cultures were diluted into Mueller Hinton Broth (MHB) to a final inoculum concentration of 5 × 10^5 CFU/mL (O.D600nm = 0.00001) and dispensed into a 96-well polystyrene plate (Alkali Scientific, Fort Lauderdale, FL, USA). Alkyl pyridine compounds were diluted into inoculated MHB to the indicated concentrations from stock solutions that would allow for DMSO concentrations below 5%, resulting in a total volume of 200 μL per well. The plates were subsequently incubated at 37 °C for 16 h at 300 rpm. The MIC values, which are defined as the lowest compound concentration that inhibited growth, were determined from three biological replicates.
# [1] = system: S. aureus strain USA300LAC biofilm; experiment: Inhibition of biofilm formation (crystal violet); details: up to 4× MIC, in words
# Description: (§1) The establishment of a bacterial biofilm usually begins with pathogen attachment to biotic and abiotic surfaces, and S. aureus is notorious for its ability to form biofilms on surfaces, such as implants and catheters, which presents a unique treatment challenge.
# (§2) Overnight cultures of S. aureus strain USA300LAC were diluted into fresh TSB to an OD600nm = 0.001 and incubated aerobically at 37 °C until the mid-log phase. (A) To detect effects on biofilm formation, cultures were diluted to an OD600nm = 0.0001 in the presence and absence of JC-01-074 and vancomycin at concentrations of 0.5–4× MIC, respectively. (B) To detect effects on biofilm eradication, cultures were diluted to an OD600nm = 0.0001 and incubated under static conditions for 24 h, after which planktonic cells were removed, and the preformed biofilms were washed twice with PBS. […] Biofilm mass was quantified after 20 h via crystal violet staining. One-way ANOVA, Dunnett’s multiple-comparison test (* p < 0.05, ** p < 0.01); (n = 3, ±S.D.).
# The overnight USA300LAC cultures were diluted 1000-fold into the fresh TSB media and incubated under shaking conditions at 37 °C until the mid-log phase. The cultures were subsequently diluted to approximately 4 × 10^6 CFU/mL and dispended into 96-well polystyrene plates (Alkali Scientific, Fort Lauderdale, FL, USA) containing DMSO (control), vancomycin (0.5–4× MIC), or the indicated alkyl pyridinol compounds (0.5–4× MIC) and sealed with a breath-easy membrane (Fisherbrand, Waltham, MA, USA). The peripheral wells were filled with PBS to limit evaporation. The plates were incubated without agitation at 37 °C for 24 h, following which the planktonic cells were removed. The biofilms were washed twice with PBS, stained with 0.1% crystal violet (CV) for 15 min, and washed again twice with PBS to remove the unbound CV dye. CV bound to biofilm cells was extracted with 30% (v/v) glacial acetic acid, and the O.D.595nm was determined.
# [2] = system: S. aureus strain USA300LAC established biofilm; experiment: Biofilm eradication assay (crystal violet); details: at or below 4× MIC, 24 h, in words
# Description: as §1, §2
# The overnight USA300LAC cultures were diluted 1000-fold into the TSB media and incubated under shaking conditions at 37 °C until the mid-log phase. […] After 24 h of incubation, biofilm eradication was assessed via CV staining at 595 nm in a Tecan 200 Infinite Pro microplate reader (Tecan, Morgan Hill, CA, USA).
# [3] = system: S. aureus strain USA300LAC; experiment: Checkerboard assay with JC-01-074 (FIC index); details: MHB, 37 °C, 20 h, antibiotic combined with JC-01-074
# Description: Therefore, we tested whether the membrane-disrupting effects of JC-01-074 could increase the sensitivity of the S. aureus strain USA300LAC to antibiotics of different classes; for instance, by facilitating their uptake into the cytoplasm. […] Antibiotic concentrations were prepared by the microbroth dilution in MHB based on their MIC values (Table 1) to obtain the final concentrations as outlined in the 96-well plate scheme for each antibiotic tested (Supplementary Figure S3). Overnight USA300LAC cultures were diluted to 5 × 10^5 CFU/mL in MHB, and the growth was recorded at 37 °C and 200 rpm for 20 h in the presence and absence of the indicated antibiotic.
# FICs were calculated as the ratio of the MIC of the antimicrobial in combination with the MIC of the antimicrobial alone. Interactions were categorized as synergistic (<0.5), additive or no interaction (0.5–2), and antagonistic (>2). FICs were calculated from three biological replicates.
# Following previous studies, the checkerboard assay was employed to determine whether JC-01-074 had synergistic effects in combination with members of different antibiotic classes. The indicated antibiotics tested in combination were first serially diluted two-fold in MHB on a longitudinal axis in a 96-well polystyrene plate. JC-01-074 was then serially diluted two-fold across the 96-well plate horizontal axis. The plates were inoculated with USA300LAC to a final inoculum concentration of 5 x10^5 CFU/mL (O.D.600nm = 0.0001) and incubated overnight at 37 °C for 20 h. The growth was measured at 600 nm in a Tecan 200 Infinite Pro microplate reader. The fractional inhibitory concentration was calculated as follows:FIC = MICJC-01-074 + antibiotics/[…]
# The classification of interactions was based on the FIC index: interactions were categorized as synergistic (FIC ≤ 0.5), additive/no interaction (FIC 0.5–2.0), and antagonistic (FIC > 2.0).
smiles,measurement,setting,value
"CN[C@H](CC(C)C)C(=O)N[C@H]1C(=O)N[C@@H](CC(N)=O)C(=O)N[C@H]2C(=O)N[C@H]3C(=O)N[C@H](C(=O)N[C@H](C(=O)O)c4cc(O)cc(O)c4-c4cc3ccc4O)[C@H](O)c3ccc(c(Cl)c3)Oc3cc2cc(c3O[C@@H]2O[C@H](CO)[C@@H](O)[C@H](O)[C@H]2O[C@H]2C[C@](C)(N)[C@H](O)[C@H](C)O2)Oc2ccc(cc2Cl)[C@H]1O [Vancomycin, reference compound]",MIC,MRSA USA300LAC,1 µg/mL
same,inhibition of biofilm formation,[1],failed to significantly inhibit biofilm formation
same,eradication of established biofilms,[2],neither JC-01-074 nor vancomycin successfully reduced established biofilms
same,interaction with JC-01-074 (sum of FIC values),[3],additive (additive/no interaction (FIC 0.5–2.0))
